Assay results as given in BindingDB's records for doi:10.1016/s0960-894x(99)00495-3 (Tokyo University of Pharmacy & Life Science, 1999).

experiment: Compound was evaluated for inhibition of PNP-catalyzed inosine […] in Cellulomonas sp

Compound	IC50
Nc1nc2c(ncn2CCCCC(F)(F)P(=O)(O)O)c(=O)[nH]1 [9-(5',5'-difluoro-5'-phosphonopentyl)guanine]	0.54 µM
O=c1[nH]cnc2c1ncn2CC[C@@H]1C[C@H]1C(F)(F)P(=O)(O)O [(Difluoro-{(1R,2S)-2-[2-(6-oxo-1,6-dihydro-purin-9-yl)-ethyl]-cyclopropyl}-methyl)-phosphonic acid]	0.07 µM
Nc1nc2c(ncn2CC[C@@H]2C[C@H]2C(F)(F)P(=O)(O)O)c(=O)[nH]1 [({(1R,2S)-2-[2-(2-Amino-6-oxo-1,6-dihydro-purin-9-yl)-ethyl]-cyclopropyl}-difluoro-methyl)-phosphonic acid]	0.39 µM
O=c1[nH]cnc2c1ncn2C[C@@H]1COC[C@@H]1CC(F)(F)P(=O)(O)O [{1,1-Difluoro-2-[(3R,4R)-4-(6-oxo-1,6-dihydro-purin-9-ylmethyl)-tetrahydro-furan-3-yl]-ethyl}-phosphonic acid]	0.035 µM
O=c1[nH]cnc2c1ncn2C[C@H]1COC[C@@H]1CC(F)(F)P(=O)(O)O [{1,1-Difluoro-2-[(3R,4S)-4-(6-oxo-1,6-dihydro-purin-9-ylmethyl)-tetrahydro-furan-3-yl]-ethyl}-phosphonic acid]	0.037 µM
